EP4603105A1, “PHARMACEUTICAL COMPOSITION CONTAINING CYCLIC COMPOUND HAVING SELECTIVE KRAS INHIBITORY EFFECT AGAINST HRAS AND NRAS” (CHUGAI SEIYAKU KABUSHIKI KAISHA, priority 2022, dated 2024)

Tests used:
[1] = target: GDP-bound KRAS wild-type protein (Homo sapiens, UniProt P01116); experiment: Binding to KRAS by surface plasmon resonance (SPR), dissociation constant KD
How it was run: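 SPR, 30°C: Avi-biotin RAS·GDP captured via Biotin CAPture (~100–300 RU); running buffer HBS pH 7.4, 1 mM DTT, 10 mM MgCl2, 0.01% Tween 20, 10 µM GDP, 4% DMSO. Single-cycle kinetics, 100 µL/min, 75 s injections; 1:1 model → KD.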

[2] = target: GDP-bound NRAS wild-type protein (Homo sapiens, UniProt P01111); experiment: Binding to NRAS by surface plasmon resonance (SPR), KD and KD ratio to KRAS
How it was run: (§1)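 Affinity is measured by surface plasmon resonance at 30°C against captured, GDP-loaded RAS carrying a biotinylated Avi tag. Compounds are titrated by single-cycle kinetics, and KD comes from a 1:1 fit.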

[3] = tested on: human lung cancer strain NCI-H441; assay type: cell-based
How it was run: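 Readout: […] after the ATP-based reagent. Compound: serial dilutions in dimethyl sulfoxide.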

HRAS wild-type protein = HRAS wild-type protein (Homo sapiens, UniProt P01112); experiment: Binding to HRAS by surface plasmon resonance (SPR), KD and KD ratio to KRAS
How it was run: as §1

[4] = ratio of KD for GDP-bound NRAS wild-type protein to KD for KRAS
[5] = ratio of KD for HRAS wild-type protein to KD for KRAS
[6] = Single Cycle Kinetics, 1:1 binding model
[7] = ratio of the KD value with respect to GDP-bound NRAS wild-type protein to the KD value with respect to KRAS
[8] = ratio of the KD value with respect to HRAS wild-type protein to the KD value with respect to KRAS
[9] = ratio of KD value for GDP-bound NRAS wild-type protein to KD value for KRAS (SPR)
[10] = ratio of KD value for HRAS wild-type protein to KD value for KRAS (SPR)

GDP-bound NRAS wild-type protein, sequence (P01111 whole entry): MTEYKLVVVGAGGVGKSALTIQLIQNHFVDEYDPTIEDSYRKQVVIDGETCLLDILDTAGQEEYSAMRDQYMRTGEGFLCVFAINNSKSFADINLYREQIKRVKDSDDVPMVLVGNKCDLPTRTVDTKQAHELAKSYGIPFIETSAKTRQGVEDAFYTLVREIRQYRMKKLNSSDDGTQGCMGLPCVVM
HRAS wild-type protein, sequence (P01112 whole entry): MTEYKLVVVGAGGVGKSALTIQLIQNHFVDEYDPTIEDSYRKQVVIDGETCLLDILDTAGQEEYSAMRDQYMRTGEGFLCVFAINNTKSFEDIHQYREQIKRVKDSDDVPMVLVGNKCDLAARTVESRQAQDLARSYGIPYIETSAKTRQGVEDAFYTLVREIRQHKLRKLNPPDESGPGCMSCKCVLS
GDP-bound KRAS wild-type protein, sequence (P01116 1-188 isoform P01116-2): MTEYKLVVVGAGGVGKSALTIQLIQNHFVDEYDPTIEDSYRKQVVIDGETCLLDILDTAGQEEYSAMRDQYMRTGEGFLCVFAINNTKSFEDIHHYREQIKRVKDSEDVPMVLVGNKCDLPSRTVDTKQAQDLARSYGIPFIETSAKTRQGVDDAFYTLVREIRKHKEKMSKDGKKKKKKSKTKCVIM

Compound | Kd ([1]; 1:1 binding model) | IC50 [3] | Kd [1, 6] | NRAS /KRAS [2, 4] | HRAS /KRAS (HRAS wild-type protein; [5]) | other results
CCC(CC)[C@H]1C(=O)N(C)[C@H](C(=O)N(C)C)CC(=O)N(C)[C@@H](COC)C(=O)N[C@@H]([C@@H](C)CC)C(=O)N(C)CC(=O)N(C)[C@H]2C/C=C\CCN(C2=O)[C@@H](Cc2ccc(C)cc2)C(=O)N(C)CC(=O)N[C@@H](CCc2ccc(Cl)c(Cl)c2)C(=O)N2C[C@H](OC(C)C)C[C@H]2C(=O)N(C)C2(CC(C)(C)C2)C(=O)N1C [PP2814] | 0.37 nM | 44.4 nM | – | AA (a compound having 20 or more is denoted as AA) | A (a compound having 10 or more and less than 20 is denoted as A) | –
C#CC[C@H]1C(=O)N[C@@H]([C@@H](C)CC)C(=O)N(C)CC(=O)N(C)[C@H]2C/C=C\CCN(C2=O)[C@@H](Cc2ccc(C(F)(F)F)cc2)C(=O)N(C)CC(=O)N[C@@H](CCc2ccc(C(F)(F)F)c(OC)c2)C(=O)N2C[C@H](F)C[C@H]2C(=O)NC2(CC(C)(C)C2)C(=O)N(C)[C@@H](CCC=C)C(=O)N(C)[C@H](C(=O)N(C)C)CC(=O)N1C [PP3126] | 0.81 nM | 116 nM | – | AA (a compound having 20 or more is denoted as AA) | A (a compound having 10 or more and less than 20 is denoted as A) | –
C=CCCC[C@H]1C(=O)N[C@@H]([C@@H](C)CC)C(=O)N(C)CC(=O)N(C)[C@H]2CCCCCN(C2=O)[C@@H](Cc2ccc(C(F)(F)F)cc2)C(=O)N(C)CC(=O)N[C@@H](CCc2cc(F)c(C(F)(F)F)c(F)c2)C(=O)N2C[C@H](OCC)C[C@H]2C(=O)N[C@](C)(CC=C)C(=O)N(C)[C@@H](C2CCCC2)C(=O)N(C)[C@H](C(=O)N2CCOCC2)CC(=O)N1C [PP0880] | – | 160 nM | – | B (a compound having 3 or more and less than 10 is denoted as B) | B (a compound having 3 or more and less than 10 is denoted as B) | Kd ([1]; Single Cycle Kinetics): 4.5 nM
CCO[C@@H]1C[C@H]2C(=O)NC3(CC(C)(C)C3)C(=O)N(C)[C@@H](C3CCCC3)C(=O)N(C)[C@H](C(=O)N(C)CC)CC(=O)N(C)[C@@H]([C@@H](C)OC)C(=O)N[C@@H]([C@@H](C)CC)C(=O)N3CCC[C@H]3C(=O)N(C)[C@H]3C/C=C\CCN(C3=O)[C@@H](Cc3ccc(C)cc3)C(=O)N(C)CC(=O)N[C@@H](CCc3ccc(C(F)(F)F)c(OC)c3)C(=O)N2C1 [PP3188] | 0.99 nM | 64.7 nM | – | A (a compound having 10 or more and less than 20 is denoted as A) | A (a compound having 10 or more and less than 20 is denoted as A) | –
CCO[C@@H]1C[C@H]2C(=O)NC3(CC(C)(C)C3)C(=O)N(C)[C@@H](C3CCCC3)C(=O)N(C)[C@H](C(=O)N(C)CC)CC(=O)N(C)[C@@H](CC(C)C)C(=O)N[C@@H]([C@@H](C)CC)C(=O)N(C)CC(=O)N(C)[C@H]3C/C=C\CCN(C3=O)[C@@H](Cc3ccc(C(F)F)cc3)C(=O)N(C)CC(=O)N[C@@H](CCc3ccc(C4CC4)c(F)c3)C(=O)N2C1 [PP3154] | 0.53 nM | 26.2 nM | – | A (a compound having 10 or more and less than 20 is denoted as A) | A (a compound having 10 or more and less than 20 is denoted as A) | –
CC[C@H](C)[C@@H]1NC(=O)[C@H](CC(C)C)N(C)C(=O)C[C@@H](C(=O)N2C[C@@H](C)O[C@@H](C)C2)N(C)C(=O)[C@H](C2CCCC2)N(C)C(=O)C2(CCCC2)NC(=O)[C@@H]2CCCN2C(=O)[C@H](CCc2ccc(C(F)(F)F)c(Cl)c2)NC(=O)CN(C)C(=O)[C@H](Cc2ccc(F)cc2)N2CCCCC[C@@H](C2=O)N(C)C(=O)CN(C)C1=O [PP1151] | – | 97.1 nM | 0.64 nM | – | – | NRAS /KRAS ([2]; ratio of KD with respect to GDP-bound NRAS wild-type protein to KD with respect to KRAS): B (a compound having 3 or more and less than 10 is denoted as B); HRAS /KRAS (HRAS wild-type protein; ratio of KD with respect to HRAS wild-type protein to KD with respect to KRAS): B (a compound having 3 or more and less than 10 is denoted as B)
CCO[C@@H]1C[C@H]2C(=O)NC3(CCC3)C(=O)N(C)[C@@H](C3CCCC3)C(=O)N(C)[C@H](C(=O)N(C)CC)CC(=O)N(C)[C@H]3CCCCCc4ccc(cc4)C[C@@H](C(=O)N(C)CC(=O)N[C@@H](CCc4cc(F)c(C(F)(F)F)c(F)c4)C(=O)N2C1)N1CC/C=C\C[C@@H](C1=O)N(C)C(=O)CN(C)C(=O)[C@H]([C@@H](C)CC)NC3=O [PP2117] | – | 28.9 nM | 0.17 nM | – | – | NRAS /KRAS [2, 7]: A (a compound having 10 or more and less than 20 is denoted as A); HRAS /KRAS (HRAS wild-type protein; [8]): A (a compound having 10 or more and less than 20 is denoted as A)
CCC[C@H]1C(=O)N[C@@H]([C@@H](C)CC)C(=O)N(C)CC(=O)N(C)[C@H]2C/C=C\CCN(C2=O)[C@@H](Cc2ccc(C)cc2)C(=O)N(C)CC(=O)N[C@@H](CCc2ccc(C(F)(F)F)c(OC)c2)C(=O)N2C[C@@H](C)C[C@H]2C(=O)NC2(CCC2)C(=O)N(C)[C@@H](C2CCCC2)C(=O)N(C)[C@H](C(=O)N(C)CC)CC(=O)N1C [PP1840] | – | 26.8 nM | 0.12 nM | – | – | NRAS /KRAS [2, 9]: A (a compound having 10 or more and less than 20 is denoted as A); HRAS /KRAS (HRAS wild-type protein; [10]): B (a compound having 3 or more and less than 10 is denoted as B)
CCO[C@@H]1C[C@H]2C(=O)NC3(CCC3)C(=O)N(C)[C@@H](C(CC)CC)C(=O)N(C)[C@H](C)CC(=O)N(C)[C@@H](CC3CC3)C(=O)N[C@@H]([C@@H](C)CC)C(=O)N(C)CC(=O)N(C)[C@H]3C/C=C\CCN(C3=O)[C@@H](Cc3ccc(F)cc3C)C(=O)N(C)CC(=O)N[C@@H](CCc3cc(F)c(C(F)(F)F)c(F)c3)C(=O)N2C1 [PP1520] | – | 575 nM | 6.6 nM | – | – | NRAS /KRAS [2, 9]: A (a compound having 10 or more and less than 20 is denoted as A); HRAS /KRAS (HRAS wild-type protein; [10]): A (a compound having 10 or more and less than 20 is denoted as A)
CCC[C@H]1C(=O)N[C@@H]([C@@H](C)CC)C(=O)N(C)CC(=O)N(C)[C@H]2C/C=C\CCN(C2=O)[C@@H](Cc2ccc(C(F)(F)F)cc2)C(=O)N(C)CC(=O)N[C@@H](CCc2ccc(C(F)(F)F)c(Cl)c2)C(=O)N2CC3(CC3)C[C@H]2C(=O)NC2(CC(C)(C)C2)C(=O)N(C)[C@@H](CC(F)(F)F)C(=O)N(C)[C@H](C(=O)N(C)C)CC(=O)N1C [PP2985] | 1.4 nM | 46.5 nM | – | AA (a compound having 20 or more is denoted as AA) | A (a compound having 10 or more and less than 20 is denoted as A) | –

The next compounds have a lower IC50 [3] than those just listed; values first:

Kd ([1]; 1:1 binding model) | IC50 [3] | Kd [1, 6] | Compound | NRAS /KRAS [2, 4] | HRAS /KRAS (HRAS wild-type protein; [5]) | other results
– | 11.3 nM | 0.28 nM | CCO[C@@H]1C[C@H]2C(=O)NC3(CCC3)C(=O)N(C)[C@@H](C3CCCC3)C(=O)N(C)[C@H](C(=O)N(C)C)CC(=O)N(C)[C@@H](CC3CCCC3)C(=O)N[C@@H]([C@@H](C)CC)C(=O)N(C)CC(=O)N(C)[C@H]3CCCCCN(C3=O)[C@@H](Cc3ccc(C(F)(F)F)cc3)C(=O)N(C)CC(=O)N[C@@H](CCc3cc(F)c(C(F)(F)F)c(F)c3)C(=O)N2C1 [PP0670] | – | – | NRAS /KRAS [2, 7]: B (a compound having 3 or more and less than 10 is denoted as B); HRAS /KRAS (HRAS wild-type protein; [8]): B (a compound having 3 or more and less than 10 is denoted as B)
– | 13.6 nM | – | CC[C@H](C)[C@@H]1NC(=O)[C@H](COC)N(C)C(=O)C[C@@H](C(=O)N2CCOCC2)N(C)C(=O)[C@H](C2CCCC2)N(C)C(=O)C2(CCC2)NC(=O)[C@@H]2CC(F)(F)CN2C(=O)[C@H](CCc2cc(F)c(C(F)(F)F)c(F)c2)NC(=O)CN(C)C(=O)[C@H](Cc2ccc(C(F)(F)F)cc2)N2CCCCC[C@@H](C2=O)N(C)C(=O)CN(C)C1=O [PP0834] | A (a compound having 10 or more and less than 20 is denoted as A) | B (a compound having 3 or more and less than 10 is denoted as B) | Kd ([1]; Single Cycle Kinetics): 0.19 nM
0.17 nM | 8.5 nM | – | CCO[C@@H]1C[C@H]2C(=O)NC3(CC(C)(C)C3)C(=O)N(C)[C@@H](C3CCCC3)C(=O)N(C)[C@H](C(=O)N(C)C)CC(=O)N(C)[C@H]3CCCCC/C=C/c4ccc(cc4)C[C@@H](C(=O)N(C)CC(=O)N[C@@H](CCc4ccc(Cl)c(Cl)c4)C(=O)N2C1)N1CC/C=C\C[C@@H](C1=O)N(C)C(=O)CN(C)C(=O)[C@H]([C@@H](C)CC)NC3=O [PP3057] | A (a compound having 10 or more and less than 20 is denoted as A) | B (a compound having 3 or more and less than 10 is denoted as B) | –
0.12 nM | 3.7 nM | – | CC[C@H](C)[C@@H]1NC(=O)[C@@H]2CCCc3ccc(cc3)C[C@@H](C(=O)N(C)CC(=O)N[C@@H](CCc3ccc(C(F)(F)F)c(OC)c3)C(=O)N3C[C@H](OC(C)C)C[C@H]3C(=O)NC3(CC(C)(C)C3)C(=O)N(C)[C@@H](C3CCCC3)C(=O)N(C)[C@H](C(=O)N(C)CC)CC(=O)N2C)N2CC/C=C\C[C@@H](C2=O)N(C)C(=O)CN(C)C1=O [PP3084] | A (a compound having 10 or more and less than 20 is denoted as A) | B (a compound having 3 or more and less than 10 is denoted as B) | –
0.4 nM | 11.1 nM | – | CCC[C@H]1C(=O)N[C@@H]([C@@H](C)CC)C(=O)N(C)CC(=O)N(C)[C@H]2C/C=C\CCN(C2=O)[C@@H](Cc2ccc(C(F)(F)F)cc2)C(=O)N(C)CC(=O)N[C@@H](CCc2ccc(C(F)(F)F)c(F)c2)C(=O)N2C[C@H](F)C[C@H]2C(=O)NC2(CC(C)(C)C2)C(=O)N(C)[C@@H](C2CCCCC2)C(=O)N(C)[C@H](C(=O)N(C)C)CC(=O)N1C [PP3122] | A (a compound having 10 or more and less than 20 is denoted as A) | B (a compound having 3 or more and less than 10 is denoted as B) | –
